Marks after values point to notes of the source that are not given here.
What was measured:
[1] = tested on: TGF-β1-induced luciferase reporter activity, HaCaT (3TP-luc) stable cells; assay: Cell-based p3TP-luciferase reporter assay; conditions: for % inhibition in luciferase reporter assay: 0.1 µM inhibitor; for p3TP-luciferase activity (% control): 0.1 μM inhibitor, TGF-β1 2 ng/mL, 24 h, mean ± SD of three independent experiments
Method: To establish HaCaT (3TP-luc) stable cells, cells were seeded on six-well plates. Cells were allowed to adhere overnight and then transfected with the p3TP-luc (neo) expression plasmid using PEI reagent (Sigma Aldrich). Transfected cells were cultured for four weeks in the presence of G418 (500 µg/mL). Several single clones were isolated and measured luciferase activity. The clone showing response to TGF-β1 treatment was used for reporter assay. HaCaT (3TP-luc) stable cells were seeded at 2.5 × 10^4 cells/well in 96-well plate and were allowed to adhere overnight. Cells were concomitantly treated with TGF-β1 (2 ng/mL) and indicated concentrations of ALK5 inhibitors in 0.2% FBS medium and incubated for 24 h at 37 °C in 5% CO2. Cell lysates were prepared using Luciferase Assay System (Promega) according to the manufacturer’s instruction, and luminescence was measured by a luminometer, Micro Lumat Plus (Berthold, Germany).

[2] = biological target: T1, purified human ALK5 kinase domain (Homo sapiens, UniProt P36897); assay: ALK5 kinase assay (33PanQinase, casein as substrate); format: biochemical; conditions: for IC50: casein substrate, 1 μM ATP, singlicate (11e: mean of triplicates); for fold less potent than the corresponding 6-methylpyridyl analogue: vs 11a, 11e, 16a, 16e respectively
T1 construct: using the purified human ALK5 kinase domain produced in Sf9 insect cells; host or cells: Sf9 insect cells
T1 sequence (P36897 205-495 limits assumed): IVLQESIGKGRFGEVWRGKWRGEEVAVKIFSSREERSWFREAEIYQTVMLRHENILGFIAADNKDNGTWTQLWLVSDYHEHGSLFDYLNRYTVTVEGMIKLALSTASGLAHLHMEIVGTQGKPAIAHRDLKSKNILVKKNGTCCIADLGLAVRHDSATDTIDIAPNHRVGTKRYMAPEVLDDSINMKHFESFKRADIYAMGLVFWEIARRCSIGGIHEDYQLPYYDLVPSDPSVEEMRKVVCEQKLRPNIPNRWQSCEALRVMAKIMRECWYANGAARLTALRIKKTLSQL
Method: To evaluate whether these potential inhibitors 7a–c, 11a–h, and 16a–h could inhibit ALK5, a kinase assay was performed using the purified human ALK5 kinase domain produced in Sf9 insect cells and casein as a substrate (Table 1).

Caco-2 cells = assay: Caco-2 cell permeability assay; format: in vitro ADME; conditions: 100 µM, AP to BL, 2 h; mean ± SD of quadruplicates
Method: Caco-2 cells were seeded in Transwell® polycarbonate filter at a density of 8 × 10^4 cells/filter and cultured for 21 days. Culture medium was removed from both apical (AP) and basolateral (BL) chambers of transwell, and the wells were rinsed three times with PBS. AP buffer (HBSS, pH 6.5) containing 10 mM MES and BL buffer (HBSS, pH 7.4) containing 10 mM HEPES were loaded in AP (500 µL) and BL (1500 µL) chambers, respectively, followed by incubation for 30 min at 37 °C. Then, test compound (100 µM) was added to the AP side and incubated for 2 h at 37 °C. After the incubation, BL buffer was collected and analysed using an UV spectrophotometer at a maximum wavelength (wavelength 225–357 nm).
To estimate oral absorption of target compounds, their permeability in a Caco-2 monolayer was evaluated at a concentration of 100 µM (Table 1).

Compound	% inhibition in luciferase reporter assay [1]	p3TP-luciferase activity (% control) [1]	IC50 [2]	Caco-2 permeability (%) (Caco-2 cells)	fold higher ALK5 inhibitory activity than 7a ([2]; kinase assay)	fold higher ALK5 inhibitory activity than 7c ([2]; kinase assay)	fold more potent than the benzo[1,3]dioxol-5-yl analogue ([2]; 11a vs 7a, 16a vs 7b, kinase assay)	fold less potent than the corresponding 6-methylpyridyl analogue ([2]; kinase assay)
Cc1cccc(-c2[nH]c(Cc3ccc(C(N)=O)cc3)nc2-c2ccc3c(c2)OCO3)n1 [Compound 7a, 4-((4-(Benzo[d][1,3]dioxol-5-yl)-5-(6-methylpyridin-2-yl)-1H-imidazol-2-yl)methyl)benzamide]	72 % inhibition	28 ± 7.1 % control	224 nM	35 ± 0.7^f %				
Cc1cccc(-c2[nH]c(CCc3ccc(C(N)=O)cc3)nc2-c2ccc3c(c2)OCO3)n1 [Compound 7b, 4-(2-(4-(Benzo[d][1,3]dioxol-5-yl)-5-(6-methylpyridin-2-yl)-1H-imidazol-2-yl)ethyl)benzamide]	74 % inhibition	26 ± 7.9 % control	93 nM	23 ± 3.0%	2.4 fold	3.6 fold		
Cc1cccc(-c2[nH]c(CCCc3ccc(C(N)=O)cc3)nc2-c2ccc3c(c2)OCO3)n1 [Compound 7c, 4-(3-(4-(Benzo[d][1,3]dioxol-5-yl)-5-(6-methylpyridin-2-yl)-1H-imidazol-2-yl)propyl)benzamide]	40 % inhibition	60 ± 9.5 % control	338 nM	32 ± 1.1%				
Cc1cccc(-c2[nH]c(Cc3ccc(C(N)=O)cc3)nc2-c2ccc3nccnc3c2)n1 [Compound 11a, 4-((5-(6-Methylpyridin-2-yl)-4-(quinoxalin-6-yl)-1H-imidazol-2-yl)methyl)benzamide]	84 % inhibition	16 ± 4.5 % control	88 nM	25 ± 1.3%			2.5 fold	
CCc1cccc(-c2[nH]c(Cc3ccc(C(N)=O)cc3)nc2-c2ccc3nccnc3c2)n1 [Compound 11b, 4-((5-(6-Ethylpyridin-2-yl)-4-(quinoxalin-6-yl)-1H-imidazol-2-yl)methyl)benzamide]		33 ± 21.3 % control	112 nM	26 ± 3.5%				1.3 fold
CC(C)c1cccc(-c2[nH]c(Cc3ccc(C(N)=O)cc3)nc2-c2ccc3nccnc3c2)n1 [Compound 11c, 4-((5-(6-Isopropylpyridin-2-yl)-4-(quinoxalin-6-yl)-1H-imidazol-2-yl)methyl)benzamide]		39 ± 11.4 % control	2190 nM	30 ± 9.0%				13–35 fold
CCCCc1cccc(-c2[nH]c(Cc3ccc(C(N)=O)cc3)nc2-c2ccc3nccnc3c2)n1 [Compound 11d, 4-((5-(6-n-Butylpyridin-2-yl)-4-(quinoxalin-6-yl)-1H-imidazol-2-yl)methyl)benzamide]		85 ± 32.5 % control	2700 nM	41 ± 5.3%				
CCc1cccc(-c2[nH]c(Cc3cccc(C(N)=O)c3)nc2-c2ccc3nccnc3c2)n1 [Compound 11f, 3-((5-(6-Ethylpyridin-2-yl)-4-(quinoxalin-6-yl)-1H-imidazol-2-yl)methyl)benzamide]		17 ± 3.7 % control	75 nM	38 ± 13.8%				2.1 fold
CCCCc1cccc(-c2[nH]c(Cc3cccc(C(N)=O)c3)nc2-c2ccc3nccnc3c2)n1 [Compound 11h, 3-((5-(6-n-Butylpyridin-2-yl)-4-(quinoxalin-6-yl)-1H-imidazol-2-yl)methyl)benzamide]		83 ± 21.1 % control	1040 nM					
